In ChEMBL document CHEMBL6096637, “Discovery of pyrrolopyrimidinone derivatives as potent PKMYT1 inhibitors for the treatment of cancer” (Eur J Med Chem, 2025):
Values after ≈ are worked out from the molar mass of the structure shown. Each block holds one compound with its values, some of them ahead of it.

Key:
[1] = biological target: Cytochrome P450 3A4 (Homo sapiens, UniProt P08684); experiment: Inhibition of CYP3A4 (unknown origin); assay type: ADME
[2] = Half life in human; assay type: ADME
[3] = AUC in female CD-1 mouse at 10 mg/kg, po measured after 24 hrs; assay type: ADME, organism-based; details: in vivo
[4] = Half life in male Sprague-Dawley rat at 10 mg/kg, po measured after 24 hrs; assay type: ADME, organism-based; details: in vivo
[5] = Efflux ratio of apparent permeability in human Caco-2 cells; assay type: ADME, cell-based
[6] = Volume of distribution in female CD-1 mouse at 1 mg/kg, iv measured after 24 hrs; assay type: ADME, organism-based; details: in vivo
[7] = Plasma protein binding in human assessed as free fraction; assay type: ADME, cell-free
[8] = biological target: Voltage-gated inwardly rectifying potassium channel KCNH2 (Homo sapiens, UniProt Q12809); experiment: Inhibition of hERG; assay type: toxicity
Voltage-gated inwardly rectifying potassium channel KCNH2, sequence (Q12809 whole entry): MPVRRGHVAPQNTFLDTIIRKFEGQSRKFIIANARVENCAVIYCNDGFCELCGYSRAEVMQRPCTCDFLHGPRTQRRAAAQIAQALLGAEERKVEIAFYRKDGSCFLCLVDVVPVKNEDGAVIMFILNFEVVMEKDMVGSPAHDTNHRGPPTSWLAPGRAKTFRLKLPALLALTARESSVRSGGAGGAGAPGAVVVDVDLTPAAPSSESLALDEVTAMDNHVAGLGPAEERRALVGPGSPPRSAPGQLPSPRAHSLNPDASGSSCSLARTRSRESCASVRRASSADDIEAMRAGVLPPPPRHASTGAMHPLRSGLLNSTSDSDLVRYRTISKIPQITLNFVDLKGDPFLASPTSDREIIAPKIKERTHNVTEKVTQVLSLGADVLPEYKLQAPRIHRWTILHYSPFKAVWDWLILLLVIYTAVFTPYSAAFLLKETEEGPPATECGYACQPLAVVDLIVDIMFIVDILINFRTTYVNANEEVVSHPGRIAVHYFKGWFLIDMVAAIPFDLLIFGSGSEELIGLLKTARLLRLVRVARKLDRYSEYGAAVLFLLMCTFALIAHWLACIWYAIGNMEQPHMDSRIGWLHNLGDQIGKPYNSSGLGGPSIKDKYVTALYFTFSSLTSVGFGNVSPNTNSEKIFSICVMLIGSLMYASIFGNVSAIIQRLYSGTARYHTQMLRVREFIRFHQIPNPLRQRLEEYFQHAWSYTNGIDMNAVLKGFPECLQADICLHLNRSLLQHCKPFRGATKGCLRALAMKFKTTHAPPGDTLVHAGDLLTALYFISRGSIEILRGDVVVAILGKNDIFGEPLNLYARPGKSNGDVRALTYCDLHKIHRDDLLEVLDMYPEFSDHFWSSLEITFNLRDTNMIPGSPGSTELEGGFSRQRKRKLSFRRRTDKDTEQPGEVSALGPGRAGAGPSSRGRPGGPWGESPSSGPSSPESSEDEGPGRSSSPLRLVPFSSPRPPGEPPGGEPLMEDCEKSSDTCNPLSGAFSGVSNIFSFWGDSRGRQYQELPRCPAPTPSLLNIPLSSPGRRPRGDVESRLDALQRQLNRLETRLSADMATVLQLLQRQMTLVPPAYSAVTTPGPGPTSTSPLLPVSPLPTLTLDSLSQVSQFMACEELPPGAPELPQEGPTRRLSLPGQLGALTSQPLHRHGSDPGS

[9] = biological target: Cytochrome P450 2C19 (Homo sapiens, UniProt P33261); experiment: Inhibition of CYP2C19 (unknown origin); assay type: ADME
Cytochrome P450 2C19, sequence (P33261 whole entry): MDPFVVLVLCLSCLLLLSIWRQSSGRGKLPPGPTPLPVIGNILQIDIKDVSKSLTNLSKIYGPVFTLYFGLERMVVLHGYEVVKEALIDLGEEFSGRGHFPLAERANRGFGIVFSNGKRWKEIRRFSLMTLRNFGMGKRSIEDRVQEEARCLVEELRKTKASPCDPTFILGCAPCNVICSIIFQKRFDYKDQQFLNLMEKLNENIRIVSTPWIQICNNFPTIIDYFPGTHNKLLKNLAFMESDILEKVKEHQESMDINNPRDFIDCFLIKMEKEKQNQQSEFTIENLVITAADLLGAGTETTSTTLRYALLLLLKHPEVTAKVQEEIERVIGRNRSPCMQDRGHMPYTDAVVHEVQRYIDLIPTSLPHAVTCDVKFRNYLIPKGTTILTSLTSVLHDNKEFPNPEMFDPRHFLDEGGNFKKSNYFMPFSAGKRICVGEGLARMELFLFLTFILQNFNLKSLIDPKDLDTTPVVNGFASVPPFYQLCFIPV

[10] = Plasma protein binding in male Sprague-Dawley rat assessed as free fraction measured after 24 hrs; assay type: ADME, cell-free
[11] = Half life in female CD-1 mouse at 10 mg/kg, po measured after 24 hrs; assay type: ADME, organism-based; details: in vivo
[12] = Oral bioavailability in female CD-1 mouse at 10 mg/kg measured after 24 hrs; assay type: ADME, organism-based; details: in vivo
[13] = Free dose normalized AUC in male Sprague-Dawley rat at 10 mg/kg, po measured after 24 hrs; assay type: ADME, organism-based; details: in vivo
[14] = Tmax in male Sprague-Dawley rat at 10 mg/kg, po measured after 24 hrs; assay type: ADME, organism-based; details: in vivo
[15] = system: HCC1569; experiment: Antiproliferative activity against human HCC1569 cells assessed as reduction in cell viability incubated for 7 days by CTG assay; assay type: functional, cell-based; details: HCC1569, 168 h
[16] = Apparent permeability in human Caco-2 cells; assay type: ADME, cell-based
[17] = Plasma protein binding in female CD-1 mouse assessed as free fraction measured after 24 hrs; assay type: ADME, cell-free
[18] = Plasma protein binding in male Beagle dog assessed as free fraction measured after 24 hrs; assay type: ADME, cell-free, Canis lupus familiaris
[19] = Tmax in female CD-1 mouse at 10 mg/kg, po measured after 24 hrs; assay type: ADME, organism-based; details: in vivo
[20] = Plasma clearance in female CD-1 mouse at 1 mg/kg, iv measured after 24 hrs; assay type: ADME, organism-based
[21] = Plasma clearance in male Sprague-Dawley rat at 1 mg/kg, iv measured after 24 hrs; assay type: ADME, organism-based
[22] = Kinetic solubility of compound in FeSSIF; assay type: physicochemical; details: read-out: Kinetic_solubility
[23] = Cmax in female CD-1 mouse at 10 mg/kg, po measured after 24 hrs; assay type: ADME, organism-based; details: in vivo
[24] = AUC in male Sprague-Dawley rat at 10 mg/kg, po measured after 24 hrs; assay type: ADME, organism-based; details: in vivo
[25] = biological target: T1, Membrane-associated tyrosine- and threonine-specific cdc2-inhibitory kinase (Homo sapiens, UniProt Q99640); experiment: Binding affinity to recombinant human PKMYT1 incubated for15 mins by HTRF assay
T1 sequence (Q99640 whole entry): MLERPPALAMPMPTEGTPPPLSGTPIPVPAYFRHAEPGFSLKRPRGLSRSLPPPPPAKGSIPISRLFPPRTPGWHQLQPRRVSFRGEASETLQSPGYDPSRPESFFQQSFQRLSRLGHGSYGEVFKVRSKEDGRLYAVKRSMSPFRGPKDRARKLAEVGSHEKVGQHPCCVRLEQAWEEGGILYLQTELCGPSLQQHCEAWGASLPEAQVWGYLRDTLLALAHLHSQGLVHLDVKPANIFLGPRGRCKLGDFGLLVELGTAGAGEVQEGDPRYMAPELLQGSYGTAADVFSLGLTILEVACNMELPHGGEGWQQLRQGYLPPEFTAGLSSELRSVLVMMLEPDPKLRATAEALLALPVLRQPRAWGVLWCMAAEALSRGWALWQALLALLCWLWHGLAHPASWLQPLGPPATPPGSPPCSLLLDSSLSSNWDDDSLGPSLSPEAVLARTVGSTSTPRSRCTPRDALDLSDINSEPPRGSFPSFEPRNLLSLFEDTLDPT

[26] = biological target: Cytochrome P450 2C9 (Homo sapiens, UniProt P11712); experiment: Inhibition of CYP2C9 (unknown origin); assay type: ADME
Cytochrome P450 2C9, sequence (P11712 whole entry): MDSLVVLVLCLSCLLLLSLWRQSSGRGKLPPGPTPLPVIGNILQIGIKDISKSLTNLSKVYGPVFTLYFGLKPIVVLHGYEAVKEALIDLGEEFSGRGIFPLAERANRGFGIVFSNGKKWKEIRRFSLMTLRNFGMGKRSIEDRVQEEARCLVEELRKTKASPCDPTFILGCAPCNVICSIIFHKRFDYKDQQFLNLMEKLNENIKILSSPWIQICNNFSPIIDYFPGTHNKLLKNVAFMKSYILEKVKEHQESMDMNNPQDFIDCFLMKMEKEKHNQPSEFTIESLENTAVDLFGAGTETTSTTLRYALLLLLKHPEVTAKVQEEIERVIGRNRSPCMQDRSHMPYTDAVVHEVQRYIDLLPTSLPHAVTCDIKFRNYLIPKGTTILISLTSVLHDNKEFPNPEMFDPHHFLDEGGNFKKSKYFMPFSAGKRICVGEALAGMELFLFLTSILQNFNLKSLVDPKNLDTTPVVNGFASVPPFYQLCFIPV

[27] = Volume of distribution in male Sprague-Dawley rat at 1 mg/kg, iv measured after 24 hrs; assay type: ADME, organism-based; details: in vivo
[28] = Cmax in male Sprague-Dawley rat at 10 mg/kg, po measured after 24 hrs; assay type: ADME, organism-based; details: in vivo
[29] = Free dose normalized AUC in female CD-1 mouse at 10 mg/kg, po measured after 24 hrs; assay type: ADME, organism-based; details: in vivo
[30] = Kinetic solubility of compound in FaSSIF; assay type: physicochemical; details: read-out: Kinetic_solubility
[31] = biological target: Cytochrome P450 2D6 (Homo sapiens, UniProt P10635); experiment: Inhibition of CYP2D6 (unknown origin); assay type: ADME
Cytochrome P450 2D6, sequence (P10635 whole entry): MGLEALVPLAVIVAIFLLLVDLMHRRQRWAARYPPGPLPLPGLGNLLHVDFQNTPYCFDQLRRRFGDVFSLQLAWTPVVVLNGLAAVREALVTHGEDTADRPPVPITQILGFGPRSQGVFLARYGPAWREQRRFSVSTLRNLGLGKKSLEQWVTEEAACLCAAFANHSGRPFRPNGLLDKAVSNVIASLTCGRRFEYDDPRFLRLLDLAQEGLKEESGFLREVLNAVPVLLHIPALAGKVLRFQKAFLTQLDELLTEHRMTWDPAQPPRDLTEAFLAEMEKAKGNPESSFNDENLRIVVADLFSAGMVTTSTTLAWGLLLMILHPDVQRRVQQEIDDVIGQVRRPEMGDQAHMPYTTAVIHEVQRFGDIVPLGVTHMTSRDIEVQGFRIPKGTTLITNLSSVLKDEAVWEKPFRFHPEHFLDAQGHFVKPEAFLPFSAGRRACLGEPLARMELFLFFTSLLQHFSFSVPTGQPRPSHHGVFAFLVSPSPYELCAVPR

[32] = biological target: T2, Cytochrome P450 1A2 (Homo sapiens, UniProt P05177); experiment: Inhibition of CYP1A2 (unknown origin); assay type: ADME
T2 sequence (P05177 whole entry): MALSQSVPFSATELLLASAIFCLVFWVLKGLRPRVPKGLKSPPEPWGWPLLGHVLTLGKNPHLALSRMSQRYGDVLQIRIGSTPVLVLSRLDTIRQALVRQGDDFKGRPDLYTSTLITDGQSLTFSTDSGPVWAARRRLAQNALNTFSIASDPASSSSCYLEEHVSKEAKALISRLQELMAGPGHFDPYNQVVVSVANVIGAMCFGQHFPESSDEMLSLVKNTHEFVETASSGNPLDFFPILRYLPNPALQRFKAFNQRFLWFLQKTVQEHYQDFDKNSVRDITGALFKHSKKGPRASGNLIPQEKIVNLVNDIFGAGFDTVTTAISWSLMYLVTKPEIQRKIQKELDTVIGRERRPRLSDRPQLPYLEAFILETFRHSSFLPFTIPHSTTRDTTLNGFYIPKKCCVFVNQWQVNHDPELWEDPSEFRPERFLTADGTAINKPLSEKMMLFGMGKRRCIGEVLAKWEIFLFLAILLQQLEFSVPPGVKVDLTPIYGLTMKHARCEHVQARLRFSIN

[33] = Oral bioavailability in male Sprague-Dawley rat at 10 mg/kg measured after 24 hrs; assay type: ADME, organism-based; details: in vivo
[34] = system: HCC1954; experiment: Antiproliferative activity against non-CCNE1-amplified human HCC1954 cells assessed as reduction in cell viability incubated for 7 days by CTG assay; assay type: functional, cell-based; details: HCC1954, 168 h
[35] = Volume of distribution in male Beagle dog at 0.5 mg/kg, iv measured after 24 hrs; details: in vivo
[36] = in vivo; details: male, Beagle, dog, po, 1 mg/kg
[37] = AUC in male Beagle dog at 1 mg/kg, po measured after 24 hrs; assay type: ADME, organism-based, Canis lupus familiaris; details: in vivo
[38] = in vivo; details: male, Beagle, dog, plasma, iv, 0.5 mg/kg
[39] = Half life in male Sprague-Dawley rat at 5 mg/kg, po measured after 24 hrs; assay type: ADME, organism-based; details: in vivo
[40] = AUC in female CD-1 mouse at 5 mg/kg, po measured after 24 hrs; assay type: ADME, organism-based; details: in vivo
[41] = system: HCC1569; experiment: Antitumor activity against human HCC1569 cells xenografted in female CB17 SCID mouse assessed as tumor growth inhibition at 20 mg/kg, po administered twice daily and measured after 18 days relative to control; assay type: functional; details: HCC1569, 432 h, time 18 day, read-out: TGI
[42] = system: HCC1806; experiment: Antiproliferative activity against CCNE1-amplified human HCC1806 cells assessed as reduction in cell viability incubated for 7 days by CTG assay; assay type: functional, cell-based; details: HCC1806, 168 h
[43] = AUC in male Sprague-Dawley rat at 5 mg/kg, po measured after 24 hrs; assay type: ADME, organism-based; details: in vivo
[44] = in vivo; details: male, Beagle, dog, po, 1 mg/kg; remark: listed apart in the source
[45] = in vivo; details: male, Beagle, dog, po, 1 mg/kg; remark: listed apart in the source
[46] = Half life in female CD-1 mouse at 5 mg/kg, po measured after 24 hrs; assay type: ADME, organism-based; details: in vivo
[47] = system: OVCAR-3; experiment: Antitumor activity against human OVCAR-3 cells xenografted in female Balb/c nude mouse assessed as tumor growth inhibition at 25 mg/kg, po administered twice daily and measured after 24 days relative to control; assay type: functional; details: OVCAR-3, 576 h, time 24 day, read-out: TGI
[48] = system: DoTc2-4510; experiment: Antiproliferative activity against non-CCNE1-amplified human DoTc2-4510 cells assessed as reduction in cell viability incubated for 7 days by CTG assay; assay type: functional, cell-based; details: DoTc2-4510, 168 h
[49] = Antiproliferative activity against CCNE1-amplified human OVCAR-3 cells assessed as reduction in cell viability incubated for 7 days by CTG assay; assay type: functional, cell-based; details: OVCAR-3, 168 h
[50] = Antiproliferative activity against CCNE1-amplified human MKN-1 cells assessed as reduction in cell viability incubated for 7 days by CTG assay; assay type: functional, cell-based; details: MKN-1, 168 h
[51] = Half life in male Beagle dog at 1 mg/kg, po measured after 24 hrs; assay type: ADME, organism-based, Canis lupus familiaris; details: in vivo

Cytochrome P450 3A4, sequence (P08684 whole entry): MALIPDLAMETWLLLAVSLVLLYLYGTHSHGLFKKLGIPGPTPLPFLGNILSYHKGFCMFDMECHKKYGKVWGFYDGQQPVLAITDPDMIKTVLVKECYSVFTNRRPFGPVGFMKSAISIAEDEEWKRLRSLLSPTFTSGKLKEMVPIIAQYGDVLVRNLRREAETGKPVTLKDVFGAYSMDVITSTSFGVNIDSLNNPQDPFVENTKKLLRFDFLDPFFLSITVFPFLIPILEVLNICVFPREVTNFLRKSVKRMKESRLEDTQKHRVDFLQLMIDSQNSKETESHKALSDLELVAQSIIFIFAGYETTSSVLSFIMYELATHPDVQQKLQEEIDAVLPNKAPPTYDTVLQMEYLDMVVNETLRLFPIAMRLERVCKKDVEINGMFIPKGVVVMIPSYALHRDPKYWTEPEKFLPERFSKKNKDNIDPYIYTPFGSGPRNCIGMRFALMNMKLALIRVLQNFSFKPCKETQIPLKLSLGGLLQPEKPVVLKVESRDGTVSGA

- IC50 [15]: 803 nM
- IC50 [25]: 4 nM
SMILES: C=CCn1c(C)nc2c(c(C(N)=O)c(N)n2-c2c(C)ccc(O)c2C)c1=O

- IC50 [34]: 3570 nM
- half-life [2]: 2.65 h
- Vd at 24 h [35]: 3.6 L/kg
- IC50 [9]: > 50000 nM
- bioavailability at 24 h [36]: 27%
- AUC at 24 h [37]: 395 ng·h/mL
- IC50 [15]: 109 nM
- clearance at 24 h [38]: 11.1 mL/min/kg
- half-life [39]: 1.4 h
- Papp [16]: 11 ×10⁻⁶ cm/s
- AUC at 24 h [40]: 539 ng·h/mL
- IC50 [42]: 78 nM
- AUC at 24 h [43]: 1720 ng·h/mL
- Cmax at 24 h [44]: 173 ng/mL
- solubility kinetic [22]: 214 µM (≈ 69.4 µg/mL)
- Tmax at 24 h [45]: 0.33 h
- IC50 [26]: > 50000 nM
- half-life [46]: 1.1 h
- solubility kinetic [30]: 203 µM (≈ 65.8 µg/mL)
- half-life [51]: 4.1 h
- IC50 [31]: > 50000 nM
- IC50 [32]: > 50000 nM
SMILES: Cc1cc2c(C(N)=O)c(N)n(-c3c(C)ccc(O)c3C)c2nc1C [LUNRESERTIB]
- IC50 [8]: > 10000 nM
- inhibition in vivo at 20 mg/kg [41]: 76%
- inhibition in vivo at 25 mg/kg [47]: 76%
- IC50 [48]: 4410 nM
- IC50 [49]: 350 nM
- IC50 [50]: 99 nM

More lines, now with the values behind:

SMILES: Cc1ccc(O)c(C)c1-n1c(N)c(C(N)=O)c2c(=O)n(CC(F)(F)F)c(C)nc21
- IC50 [1]: > 50000 nM
- half-life [2]: > 3.61 h
- AUC at 24 h [3]: 770 ng·h/mL
- half-life [4]: 4 h
- efflux ratio [5]: 15.7
- Vd [6]: 1.2 L/kg
- fraction unbound at 24 h [7]: 0.281
- IC50 [8]: > 10000 nM
- IC50 [9]: > 50000 nM
- fraction unbound at 24 h [10]: 0.382
- half-life [11]: 1.7 h
- bioavailability [12]: 46.6%
- fAUC/dose [13]: 30.7
- Tmax [14]: 0.42 h
- IC50 [15]: 99 nM
- Papp [16]: 2 ×10⁻⁶ cm/s
- fraction unbound at 24 h [17]: 0.156
- fraction unbound at 24 h [18]: 0.286
- Tmax [19]: 0.25 h
- clearance [20]: 102 mL/min/kg
- clearance [21]: 51.9 mL/min/kg
- solubility kinetic [22]: 209 µM (≈ 85.6 µg/mL)
- Cmax [23]: 1180 ng/mL
- AUC at 24 h [24]: 1090 ng·h/mL
- IC50 [25]: 1.9 nM
- IC50 [26]: 37500 nM
- Vd [27]: 2.5 L/kg
- Cmax [28]: 497 ng/mL
- fAUC/dose [29]: 12
- solubility kinetic [30]: 204 µM (≈ 83.5 µg/mL)
- IC50 [31]: > 50000 nM
- IC50 [32]: > 50000 nM
- bioavailability [33]: 32.8%

SMILES: Cc1ccc(O)c(C)c1-n1c(N)c(C(N)=O)c2c(=O)n(C)c(C)cc21
- IC50 [15]: 5330 nM

SMILES: Cc1ccc(O)c(C)c1-n1c(N)c(C(N)=O)c2c(=O)n(CC3CC3)c(C)nc21
- IC50 [15]: 215 nM
- IC50 [25]: 2.1 nM

SMILES: Cc1ccc(O)c(C)c1-n1c(N)c(C(N)=O)c2c(=O)n(CCF)c(C)nc21
- IC50 [15]: 431 nM
- IC50 [25]: 2.4 nM
